Experimental data published in ChEMBL document CHEMBL4421728, “Bach1 Inhibitors in Combination with Nrf2 Activators and Pharmaceutical Compositions Thereof” (2017).

Tests used:
[1] = biological target: T1, Transcription regulator protein BACH1 (Homo sapiens) (UniProt O14867); assay: Inhibition of Bach1 in normal human lung fibroblasts assessed as induction of HMOX protein expression at 2.5 uM incubated for 16 to 18 hrs in presence of 0.019 uM Nrf2 activator Bardoxolone methyl by immunostaining relative to control
T1 sequence (whole entry): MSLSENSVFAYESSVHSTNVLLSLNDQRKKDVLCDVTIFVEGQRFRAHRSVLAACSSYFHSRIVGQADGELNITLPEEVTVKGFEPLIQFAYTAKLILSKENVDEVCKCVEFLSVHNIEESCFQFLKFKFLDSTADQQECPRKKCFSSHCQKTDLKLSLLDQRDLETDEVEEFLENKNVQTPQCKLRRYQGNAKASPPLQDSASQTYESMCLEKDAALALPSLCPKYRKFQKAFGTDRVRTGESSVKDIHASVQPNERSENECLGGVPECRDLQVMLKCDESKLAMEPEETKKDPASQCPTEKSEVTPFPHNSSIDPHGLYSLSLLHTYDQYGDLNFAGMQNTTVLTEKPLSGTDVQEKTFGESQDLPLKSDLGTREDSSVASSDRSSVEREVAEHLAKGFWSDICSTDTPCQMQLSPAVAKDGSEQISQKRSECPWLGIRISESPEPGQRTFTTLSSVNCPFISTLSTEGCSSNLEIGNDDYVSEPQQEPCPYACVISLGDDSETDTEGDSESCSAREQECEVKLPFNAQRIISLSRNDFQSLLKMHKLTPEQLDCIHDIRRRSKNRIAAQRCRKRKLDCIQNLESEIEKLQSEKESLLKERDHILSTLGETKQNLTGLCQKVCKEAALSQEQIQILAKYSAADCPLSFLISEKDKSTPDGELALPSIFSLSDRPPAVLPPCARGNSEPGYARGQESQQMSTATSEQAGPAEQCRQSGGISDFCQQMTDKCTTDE

[2] = biological target: T1, Transcription regulator protein BACH1 (Homo sapiens); assay: Inhibition of Bach1 in normal human lung fibroblasts assessed as induction of HMOX protein expression at 0.019 uM incubated for 16 to 18 hrs in presence of 0.078 uM Nrf2 activator Bardoxolone methyl by immunostaining relative to control
[3] = biological target: T1, Transcription regulator protein BACH1 (Homo sapiens); assay: Inhibition of Bach1 in normal human lung fibroblasts assessed as induction of HMOX protein expression at 0.625 uM incubated for 16 to 18 hrs by immunostaining relative to control
[4] = biological target: T1, Transcription regulator protein BACH1 (Homo sapiens); assay: Inhibition of Bach1 in normal human lung fibroblasts assessed as induction of HMOX protein expression at 2.5 uM incubated for 16 to 18 hrs in presence of 0.0048 uM Nrf2 activator Bardoxolone methyl by immunostaining relative to control
[5] = biological target: T1, Transcription regulator protein BACH1 (Homo sapiens); assay: Inhibition of Bach1 in normal human lung fibroblasts assessed as induction of HMOX protein expression at 0.039 uM incubated for 16 to 18 hrs in presence of 0.312 uM Nrf2 activator Bardoxolone methyl by immunostaining relative to control
[6] = biological target: T1, Transcription regulator protein BACH1 (Homo sapiens); assay: Inhibition of Bach1 in normal human lung fibroblasts assessed as induction of HMOX protein expression at 1.25 uM incubated for 16 to 18 hrs in presence of 0.0097 uM Nrf2 activator Bardoxolone methyl by immunostaining relative to control
[7] = biological target: T1, Transcription regulator protein BACH1 (Homo sapiens); assay: Inhibition of Bach1 in normal human lung fibroblasts assessed as induction of HMOX protein expression at 0.156 uM incubated for 16 to 18 hrs in presence of 0.0048 uM Nrf2 activator Bardoxolone methyl by immunostaining relative to control
[8] = biological target: T1, Transcription regulator protein BACH1 (Homo sapiens); assay: Inhibition of Bach1 in normal human lung fibroblasts assessed as induction of HMOX protein expression at 0.625 uM incubated for 16 to 18 hrs in presence of 0.078 uM Nrf2 activator Bardoxolone methyl by immunostaining relative to control
[9] = biological target: T1, Transcription regulator protein BACH1 (Homo sapiens); assay: Inhibition of Bach1 in normal human lung fibroblasts assessed as induction of HMOX protein expression at 2.5 uM incubated for 16 to 18 hrs in presence of 0.0024 uM Nrf2 activator Bardoxolone methyl by immunostaining relative to control
[10] = biological target: T1, Transcription regulator protein BACH1 (Homo sapiens); assay: Inhibition of Bach1 in normal human lung fibroblasts assessed as induction of HMOX protein expression at 1.25 uM incubated for 16 to 18 hrs in presence of 0.156 uM Nrf2 activator Bardoxolone methyl by immunostaining relative to control
[11] = biological target: T1, Transcription regulator protein BACH1 (Homo sapiens); assay: Inhibition of Bach1 in normal human lung fibroblasts assessed as induction of HMOX protein expression at 1.25 uM incubated for 16 to 18 hrs by immunostaining relative to control
[12] = biological target: T1, Transcription regulator protein BACH1 (Homo sapiens); assay: Inhibition of Bach1 in normal human lung fibroblasts assessed as induction of HMOX protein expression at 0.019 uM incubated for 16 to 18 hrs in presence of 0.0048 uM Nrf2 activator Bardoxolone methyl by immunostaining relative to control
[13] = biological target: T1, Transcription regulator protein BACH1 (Homo sapiens); assay: Inhibition of Bach1 in normal human lung fibroblasts assessed as induction of HMOX protein expression at 0.078 uM incubated for 16 to 18 hrs in presence of 0.0048 uM Nrf2 activator Bardoxolone methyl by immunostaining relative to control
[14] = biological target: T1, Transcription regulator protein BACH1 (Homo sapiens); assay: Inhibition of Bach1 in normal human lung fibroblasts assessed as induction of HMOX protein expression at 0.078 uM incubated for 16 to 18 hrs in presence of 0.0024 uM Nrf2 activator Bardoxolone methyl by immunostaining relative to control
[15] = biological target: T1, Transcription regulator protein BACH1 (Homo sapiens); assay: Inhibition of Bach1 in normal human lung fibroblasts assessed as induction of HMOX protein expression at 0.312 uM incubated for 16 to 18 hrs in presence of 0.0048 uM Nrf2 activator Bardoxolone methyl by immunostaining relative to control
[16] = biological target: T1, Transcription regulator protein BACH1 (Homo sapiens); assay: Inhibition of Bach1 in normal human lung fibroblasts assessed as induction of HMOX protein expression at 0.078 uM incubated for 16 to 18 hrs in presence of 0.0097 uM Nrf2 activator Bardoxolone methyl by immunostaining relative to control
[17] = biological target: T1, Transcription regulator protein BACH1 (Homo sapiens); assay: Inhibition of Bach1 in normal human lung fibroblasts assessed as induction of HMOX protein expression at 0.078 uM incubated for 16 to 18 hrs in presence of 0.312 uM Nrf2 activator Bardoxolone methyl by immunostaining relative to control
[18] = biological target: T1, Transcription regulator protein BACH1 (Homo sapiens); assay: Inhibition of Bach1 in normal human lung fibroblasts assessed as induction of HMOX protein expression at 2.5 uM incubated for 16 to 18 hrs in presence of 0.039 uM Nrf2 activator Bardoxolone methyl by immunostaining relative to control
[19] = biological target: T1, Transcription regulator protein BACH1 (Homo sapiens); assay: Inhibition of Bach1 in normal human lung fibroblasts assessed as induction of HMOX protein expression at 0.625 uM incubated for 16 to 18 hrs in presence of 0.0097 uM Nrf2 activator Bardoxolone methyl by immunostaining relative to control
[20] = biological target: T1, Transcription regulator protein BACH1 (Homo sapiens); assay: Inhibition of Bach1 in normal human lung fibroblasts assessed as induction of HMOX protein expression at 1.25 uM incubated for 16 to 18 hrs in presence of 0.312 uM Nrf2 activator Bardoxolone methyl by immunostaining relative to control
[21] = biological target: T1, Transcription regulator protein BACH1 (Homo sapiens); assay: Inhibition of Bach1 in normal human lung fibroblasts assessed as induction of HMOX protein expression at 0.039 uM incubated for 16 to 18 hrs in presence of 0.0024 uM Nrf2 activator Bardoxolone methyl by immunostaining relative to control

Q: With CNC(=O)c1ccc2c(c1)nc(Nc1nc3ccc(OC(F)(F)F)cc3s1)n2C as the compound, how does the fold change (FC) [1] read?
A: The fold change (FC) was 17.

Q: And the fold change (FC) [2]?
A: The fold change (FC) was 22.3.

Q: And the fold change (FC) [3]?
A: The fold change (FC) was 15.

Q: What about the fold change (FC) [4] of the same compound?
A: The fold change (FC) was 19.5.

Q: What about the fold change (FC) [5] of the same compound?
A: Its fold change (FC) is 17.4.

Q: What about the fold change (FC) [6] of the same compound?
A: Its fold change (FC) is 16.5.

Q: What about the fold change (FC) [7] of the same compound?
A: The fold change (FC) was 8.04.

Q: What about the fold change (FC) [8] of the same compound?
A: Its fold change (FC) is 18.6.

Q: What about the fold change (FC) [9] of the same compound?
A: Its fold change (FC) is 18.8.

Q: And the fold change (FC) [10]?
A: The fold change (FC) was 16.6.

Q: And the fold change (FC) [11]?
A: The fold change (FC) was 16.2.

Q: And the fold change (FC) [12]?
A: Its fold change (FC) is 2.88.

Q: And the fold change (FC) [13]?
A: The fold change (FC) was 4.72.

Q: And the fold change (FC) [14]?
A: The fold change (FC) was 4.25.

Q: And the fold change (FC) [15]?
A: The fold change (FC) was 13.6.

Q: What about the fold change (FC) [16] of the same compound?
A: Its fold change (FC) is 8.43.

Q: And the fold change (FC) [17]?
A: The fold change (FC) was 15.3.

Q: And the fold change (FC) [18]?
A: The fold change (FC) was 14.7.

Q: What about the fold change (FC) [19] of the same compound?
A: Its fold change (FC) is 17.2.

Q: What about the fold change (FC) [20] of the same compound?
A: Its fold change (FC) is 10.5.

Q: And the fold change (FC) [21]?
A: Its fold change (FC) is 2.32.
